Laboratory results from PMC11995078, “Protocol for high-throughput screening of SIRT7 inhibitors using fluorescent peptide technology” (STAR Protocols, 2025).

Molecular target: T1, Sirtuin 7 (SIRT7) (Homo sapiens, UniProt Q9NRC8)
T1 construct: his-tagged full length SIRT7 (pET-28a, E. coli BL21(DE3))
T1 sequence (Q9NRC8 1-400): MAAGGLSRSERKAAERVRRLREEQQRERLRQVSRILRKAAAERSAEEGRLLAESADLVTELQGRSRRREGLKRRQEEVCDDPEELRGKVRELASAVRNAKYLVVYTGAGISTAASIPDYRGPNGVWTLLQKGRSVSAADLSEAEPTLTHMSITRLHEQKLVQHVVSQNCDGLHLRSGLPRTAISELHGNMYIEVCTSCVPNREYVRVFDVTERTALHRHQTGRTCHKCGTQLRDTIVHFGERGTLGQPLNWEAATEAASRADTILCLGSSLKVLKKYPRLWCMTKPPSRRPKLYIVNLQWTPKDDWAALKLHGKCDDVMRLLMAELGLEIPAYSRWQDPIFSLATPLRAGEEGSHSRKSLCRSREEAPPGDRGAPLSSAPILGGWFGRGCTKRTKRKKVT
Assay: fluorescent MCA-peptide (H3K18) deacylation assay with purified SIRT7, dose-response
Assay type: biochemical

## COC(=O)/C(=C\C(=O)c1ccc(O)c(O)c1)c1ccc(O)c(O)c1 [YZL-51N]
  IC50: 12.7 µM
